Laboratory results: patent US20140297199A1, “DRUG SCREENING METHOD AND USES THEREOF” (COLD SPRING HARBOR LABORATORY, priority 2011, published 2014)
Entries after “also recorded” stand apart in the source; their conditions may differ.

Test system: c-fos-GFP expression in the mouse brain
Assay: c-fos-GFP pharmacomaps of three antipsychotics at a moderate dosage (Example 9)
Details: 5 mouse brains per drug; for brain regions activated (pharmacomap): haloperidol 0.25 mg/kg, risperidone 1.0 mg/kg, aripiprazole 1.0 mg/kg, vs saline; for c-fos-GFP activation, Anterior cingulate cortex (ACAd) / c-fos-GFP activation, Anterior cingulate cortex (ACAv) / c-fos-GFP activation, Basal, Central, Cortic. Amydgala (AMG) / c-fos-GFP activation, Bed nucleus of Stria Terminalis (BST) / c-fos-GFP activation, Caudate-putamen (CP, dorso-medial) / c-fos-GFP activation, Caudate-putamen (CP, ventro-medial) / c-fos-GFP activation, Caudoputamen (CP, dorsolateral) / c-fos-GFP activation, Caudoputamen (CP, ventrolateral) / c-fos-GFP activation, Central medial thalamic nucleus / c-fos-GFP activation, Claustrum (CLA) / c-fos-GFP activation, Dorsomedial hypoth. (HYP) / c-fos-GFP activation, Gostatory Cx (GU) / c-fos-GFP activation, Hippocampus: CA1, CA2, CA3 (HF) / c-fos-GFP activation, Hippocampus: DG / c-fos-GFP activation, Hypothalamus, ventromedial nuclei / c-fos-GFP activation, Infralimbic cortex (IL) / c-fos-GFP activation, Insular area, agranular / c-fos-GFP activation, Lateral Septum (LS) / c-fos-GFP activation, Lateral Spetal Nucl, dorsal part / c-fos-GFP activation, Midline Thalamus (Nucl Reuniens, RE) / c-fos-GFP activation, Midline Thalamus (PVT) / c-fos-GFP activation, Motor area, primary (MOp) / c-fos-GFP activation, Motor area, secondary (MOs) / c-fos-GFP activation, Nucleus Accumbens (ACB), core / c-fos-GFP activation, Nucleus Accumbens (ACB), shell / c-fos-GFP activation, Nucleus Accumbens (ACB), whole / c-fos-GFP activation, Olfactory tubercle (OT) / c-fos-GFP activation, Orbital cortex ventral (VO) / c-fos-GFP activation, Orbital cx (ORB), lateral / c-fos-GFP activation, Orbital cx (ORB), medial / c-fos-GFP activation, Piriform cx (PIR) / c-fos-GFP activation, Prelimbic cx (PL) / c-fos-GFP activation, RSPd, v, d and agl / c-fos-GFP activation, Red nucleus (RN) / c-fos-GFP activation, Somatosensory cx, primary / c-fos-GFP activation, Striatum, ventro-lateral / c-fos-GFP activation, Superior Colliculus (SC) / c-fos-GFP activation, Temporal cortex / c-fos-GFP activation, Ventromedial Thalamus (caudally) / c-fos-GFP activation, Zona Inserta: haloperidol 0.25, risperidone 1.0, aripiprazole 1.0 mg/kg, vs saline-injected control

Q: How did the “brain regions activated (pharmacomap)” value turn out when O=C1CCc2ccc(OCCCCN3CCN(c4cccc(Cl)c4Cl)CC3)cc2N1 [aripiprazole] was run?
A: Its value is “activated a partially overlapping pattern, with more cortical areas, including prominent activation of auditory association and entorhinal areas; also recorded: Parts of the amygdala (AMG), hippocampal formation (HF), and midline thalamus (PVT and RE) also showed activation”.

Q: What about the “c-fos-GFP activation, Anterior cingulate cortex (ACAd)” value of the same compound?
A: Its value is “up”.

Q: And the “c-fos-GFP activation, Anterior cingulate cortex (ACAv)” value?
A: The value was “up”.

Q: What about the “c-fos-GFP activation, Basal, Central, Cortic. Amydgala (AMG)” value of the same compound?
A: The value was “up”.

Q: And the “c-fos-GFP activation, Bed nucleus of Stria Terminalis (BST)” value?
A: The value was 0.

Q: What about the “c-fos-GFP activation, Caudate-putamen (CP, dorso-medial)” value of the same compound?
A: The value was 0.

Q: What about the “c-fos-GFP activation, Caudate-putamen (CP, ventro-medial)” value of the same compound?
A: The value was 0.

Q: And the “c-fos-GFP activation, Caudoputamen (CP, dorsolateral)” value?
A: Its value is “up”.

Q: And the “c-fos-GFP activation, Caudoputamen (CP, ventrolateral)” value?
A: Its value is 0.

Q: What about the “c-fos-GFP activation, Central medial thalamic nucleus” value of the same compound?
A: The value was “up”.

Q: And the “c-fos-GFP activation, Claustrum (CLA)” value?
A: The value was “up”.

Q: And the “c-fos-GFP activation, Dorsomedial hypoth. (HYP)” value?
A: Its value is 0.

Q: What about the “c-fos-GFP activation, Gostatory Cx (GU)” value of the same compound?
A: The value was “up”.

Q: And the “c-fos-GFP activation, Hippocampus: CA1, CA2, CA3 (HF)” value?
A: The value was “up”.

Q: What about the “c-fos-GFP activation, Hippocampus: DG” value of the same compound?
A: Its value is “down”.

Q: What about the “c-fos-GFP activation, Hypothalamus, ventromedial nuclei” value of the same compound?
A: Its value is 0.

Q: And the “c-fos-GFP activation, Infralimbic cortex (IL)” value?
A: Its value is “up”.

Q: What about the “c-fos-GFP activation, Insular area, agranular” value of the same compound?
A: The value was “up”.

Q: And the “c-fos-GFP activation, Lateral Septum (LS)” value?
A: The value was 0.

Q: What about the “c-fos-GFP activation, Lateral Spetal Nucl, dorsal part” value of the same compound?
A: The value was “up”.

Q: And the “c-fos-GFP activation, Midline Thalamus (Nucl Reuniens, RE)” value?
A: Its value is “up”.

Q: What about the “c-fos-GFP activation, Midline Thalamus (PVT)” value of the same compound?
A: The value was “up”.

Q: And the “c-fos-GFP activation, Motor area, primary (MOp)” value?
A: Its value is “up”.

Q: And the “c-fos-GFP activation, Motor area, secondary (MOs)” value?
A: The value was “up”.

Q: What about the “c-fos-GFP activation, Nucleus Accumbens (ACB), core” value of the same compound?
A: Its value is “up”.

Q: What about the “c-fos-GFP activation, Nucleus Accumbens (ACB), shell” value of the same compound?
A: The value was “up”.

Q: What about the “c-fos-GFP activation, Nucleus Accumbens (ACB), whole” value of the same compound?
A: Its value is 0.

Q: And the “c-fos-GFP activation, Olfactory tubercle (OT)” value?
A: The value was “up”.

Q: And the “c-fos-GFP activation, Orbital cortex ventral (VO)” value?
A: Its value is 0.

Q: And the “c-fos-GFP activation, Orbital cx (ORB), lateral” value?
A: Its value is “up”.

Q: And the “c-fos-GFP activation, Orbital cx (ORB), medial” value?
A: Its value is “up”.

Q: And the “c-fos-GFP activation, Piriform cx (PIR)” value?
A: Its value is 0.

Q: And the “c-fos-GFP activation, Prelimbic cx (PL)” value?
A: The value was “up”.

Q: What about the “c-fos-GFP activation, RSPd, v, d and agl” value of the same compound?
A: The value was “up”.

Q: And the “c-fos-GFP activation, Red nucleus (RN)” value?
A: Its value is “down”.

Q: What about the “c-fos-GFP activation, Somatosensory cx, primary” value of the same compound?
A: Its value is “up”.

Q: What about the “c-fos-GFP activation, Striatum, ventro-lateral” value of the same compound?
A: Its value is “up”.

Q: And the “c-fos-GFP activation, Superior Colliculus (SC)” value?
A: The value was “up”.

Q: What about the “c-fos-GFP activation, Temporal cortex” value of the same compound?
A: The value was “up”.

Q: What about the “c-fos-GFP activation, Ventromedial Thalamus (caudally)” value of the same compound?
A: The value was “up”.

Q: And the “c-fos-GFP activation, Zona Inserta” value?
A: The value was “up”.

Q: For Cc1nc2n(c(=O)c1CCN1CCC(c3noc4cc(F)ccc34)CC1)CCCC2 [risperidone], which “brain regions activated (pharmacomap)” value is on record?
A: The value was “activated the prelimbic (PL), orbital (ORB), piriform (PIR) and gustatory (GU) cortices, the dorsal and ventral CP, ACB, claustrum (CLA), and superior colliculus (SC)”.

Q: What about the “c-fos-GFP activation, Anterior cingulate cortex (ACAd)” value of the same compound?
A: Its value is 0.

Q: And the “c-fos-GFP activation, Anterior cingulate cortex (ACAv)” value?
A: The value was 0.

Q: And the “c-fos-GFP activation, Basal, Central, Cortic. Amydgala (AMG)” value?
A: The value was 0.

Q: And the “c-fos-GFP activation, Bed nucleus of Stria Terminalis (BST)” value?
A: Its value is 0.

Q: What about the “c-fos-GFP activation, Caudate-putamen (CP, dorso-medial)” value of the same compound?
A: Its value is 0.

Q: And the “c-fos-GFP activation, Caudate-putamen (CP, ventro-medial)” value?
A: The value was 0.

Q: And the “c-fos-GFP activation, Caudoputamen (CP, dorsolateral)” value?
A: The value was “up”.

Q: And the “c-fos-GFP activation, Caudoputamen (CP, ventrolateral)” value?
A: The value was “up”.

Q: And the “c-fos-GFP activation, Central medial thalamic nucleus” value?
A: Its value is 0.

Q: What about the “c-fos-GFP activation, Claustrum (CLA)” value of the same compound?
A: Its value is “up”.

Q: And the “c-fos-GFP activation, Dorsomedial hypoth. (HYP)” value?
A: Its value is 0.

Q: And the “c-fos-GFP activation, Gostatory Cx (GU)” value?
A: Its value is “up”.

Q: And the “c-fos-GFP activation, Hippocampus: CA1, CA2, CA3 (HF)” value?
A: Its value is 0.

Q: What about the “c-fos-GFP activation, Hippocampus: DG” value of the same compound?
A: The value was 0.

Q: And the “c-fos-GFP activation, Hypothalamus, ventromedial nuclei” value?
A: Its value is “down”.

Q: And the “c-fos-GFP activation, Infralimbic cortex (IL)” value?
A: Its value is 0.

Q: And the “c-fos-GFP activation, Insular area, agranular” value?
A: The value was 0.

Q: And the “c-fos-GFP activation, Lateral Septum (LS)” value?
A: The value was 0.

Q: And the “c-fos-GFP activation, Lateral Spetal Nucl, dorsal part” value?
A: The value was 0.

Q: And the “c-fos-GFP activation, Midline Thalamus (Nucl Reuniens, RE)” value?
A: Its value is 0.

Q: And the “c-fos-GFP activation, Midline Thalamus (PVT)” value?
A: The value was 0.

Q: And the “c-fos-GFP activation, Motor area, primary (MOp)” value?
A: Its value is 0.

Q: What about the “c-fos-GFP activation, Motor area, secondary (MOs)” value of the same compound?
A: Its value is 0.

Q: What about the “c-fos-GFP activation, Nucleus Accumbens (ACB), core” value of the same compound?
A: Its value is “up”.

Q: And the “c-fos-GFP activation, Nucleus Accumbens (ACB), shell” value?
A: Its value is 0.

Q: What about the “c-fos-GFP activation, Nucleus Accumbens (ACB), whole” value of the same compound?
A: The value was 0.

Q: What about the “c-fos-GFP activation, Olfactory tubercle (OT)” value of the same compound?
A: The value was 0.

Q: And the “c-fos-GFP activation, Orbital cortex ventral (VO)” value?
A: Its value is “up”.

Q: And the “c-fos-GFP activation, Orbital cx (ORB), lateral” value?
A: Its value is “up”.

Q: What about the “c-fos-GFP activation, Orbital cx (ORB), medial” value of the same compound?
A: Its value is “up”.

Q: And the “c-fos-GFP activation, Piriform cx (PIR)” value?
A: The value was “up”.

Q: What about the “c-fos-GFP activation, Prelimbic cx (PL)” value of the same compound?
A: The value was “down”.

Q: What about the “c-fos-GFP activation, RSPd, v, d and agl” value of the same compound?
A: Its value is 0.

Q: And the “c-fos-GFP activation, Red nucleus (RN)” value?
A: The value was 0.

Q: What about the “c-fos-GFP activation, Somatosensory cx, primary” value of the same compound?
A: Its value is 0.

Q: What about the “c-fos-GFP activation, Striatum, ventro-lateral” value of the same compound?
A: The value was 0.

Q: And the “c-fos-GFP activation, Superior Colliculus (SC)” value?
A: The value was 0.

Q: And the “c-fos-GFP activation, Temporal cortex” value?
A: Its value is 0.

Q: What about the “c-fos-GFP activation, Ventromedial Thalamus (caudally)” value of the same compound?
A: The value was 0.

Q: What about the “c-fos-GFP activation, Zona Inserta” value of the same compound?
A: Its value is 0.
